# Data reported in the supplement of paper PMC10307832.
# Assays:
# Experiment in all cases: relative viability (nuclei count vs DMSO), 5 days (fraction); higher = more cells survive
# CX-5461 + Dasatinib = compound: Cc1cnc(CNC(=O)c2c(=O)c3ccc(N4CCCN(C)CC4)nc3n3c2sc2ccccc23)cn1 [CX-5461] + Cc1nc(Nc2ncc(C(=O)Nc3c(C)cccc3Cl)s2)cc(N2CCN(CCO)CC2)n1 [Dasatinib] (partner 0.075 µM)
# Procedure, shortened: (§1)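 After 5 days of treatment, lung cancer cells in 1536-well plates were fixed and stained in a single step (final 0.05% Triton X-100, 1% formaldehyde, 1 ug/ml Hoechst) and their nuclei counted on 4× images. Treatment had been applied by pin tool the day after seeding as one drug alone or as a fixed anchor-drug dose with five library-drug doses (not always all listed) in √10 steps. Relative viability is the nuclei count of treated wells divided by that of vehicle wells, and values are medians of duplicate plates.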
# IMD-0354 + Trametinib = compound: O=C(Nc1cc(C(F)(F)F)cc(C(F)(F)F)c1)c1cc(Cl)ccc1O [IMD-0354] + CC(=O)Nc1cccc(-n2c(=O)n(C3CC3)c(=O)c3c(Nc4ccc(I)cc4F)n(C)c(=O)c(C)c32)c1 [Trametinib] (partner 0.02 µM)
# Procedure, shortened: as §1
# IMD-0354 + Foretinib = compound: O=C(Nc1cc(C(F)(F)F)cc(C(F)(F)F)c1)c1cc(Cl)ccc1O [IMD-0354] + COc1cc2c(Oc3ccc(NC(=O)C4(C(=O)Nc5ccc(F)cc5)CC4)cc3F)ccnc2cc1OCCCN1CCOCC1 [Foretinib] (partner 0.25 µM)
# Procedure, shortened: as §1
# IMD-0354 + Pictilisib = compound: O=C(Nc1cc(C(F)(F)F)cc(C(F)(F)F)c1)c1cc(Cl)ccc1O [IMD-0354] + CS(=O)(=O)N1CCN(Cc2cc3nc(-c4cccc5[nH]ncc45)nc(N4CCOCC4)c3s2)CC1 [Pictilisib] (partner 1 µM)
# Procedure, shortened: as §1
Cell Line,relative viability (CX-5461 + Dasatinib; first compound 0.01 µM),relative viability (CX-5461 + Dasatinib; first compound 0.03162 µM),relative viability (CX-5461 + Dasatinib; first compound 0.1 µM),relative viability (CX-5461 + Dasatinib; first compound 0.3162 µM),relative viability (CX-5461 + Dasatinib; first compound 1 µM),relative viability (IMD-0354 + Trametinib; first compound 0.04 µM),relative viability (IMD-0354 + Trametinib; first compound 0.1265 µM),relative viability (IMD-0354 + Trametinib; first compound 0.4 µM),relative viability (IMD-0354 + Trametinib; first compound 1.265 µM),relative viability (IMD-0354 + Trametinib; first compound 4 µM),relative viability (IMD-0354 + Foretinib; first compound 0.04 µM),relative viability (IMD-0354 + Foretinib; first compound 0.1265 µM),relative viability (IMD-0354 + Foretinib; first compound 0.4 µM),relative viability (IMD-0354 + Foretinib; first compound 1.265 µM),relative viability (IMD-0354 + Foretinib; first compound 4 µM),relative viability (IMD-0354 + Pictilisib; first compound 0.04 µM),relative viability (IMD-0354 + Pictilisib; first compound 0.1265 µM),relative viability (IMD-0354 + Pictilisib; first compound 0.4 µM),relative viability (IMD-0354 + Pictilisib; first compound 1.265 µM),relative viability (IMD-0354 + Pictilisib; first compound 4 µM)
NCI-H1395,0.402,0.414,0.418,0.39,0.367,1.07,1.04,1.01,0.453,0.388,1.08,0.969,0.98,0.449,0.306,0.592,0.589,0.555,0.346,0.348
NCI-H1437,0.434,0.373,0.431,0.32,0.368,0.538,0.486,0.325,0.194,0.191,1.34,1.16,0.624,0.424,0.251,0.492,0.381,0.442,0.153,0.185
COR-L23,0.477,0.495,0.438,0.46,0.226,0.64,0.576,0.458,0.118,0.163,0.833,0.844,0.349,0.138,0.131,0.636,0.646,0.371,0.131,0.211
ABC-1,0.697,0.582,0.45,0.384,0.449,,,,,,0.876,1.12,0.854,0.37,0.29,0.753,0.643,0.447,0.25,0.263
SW 900,0.45,0.541,0.701,0.4,0.211,0.711,0.639,0.599,0.154,0.212,0.886,0.787,0.444,0.562,0.246,,,,,
NCI-H838,0.283,0.292,0.38,0.241,0.243,0.518,0.466,0.236,0.204,0.166,1.08,0.925,0.463,0.579,0.403,0.559,0.458,0.377,0.247,0.26
NCI-H1648,,,,,,0.435,0.504,0.369,0.545,0.271,,,,,,,,,,
A549,,,,,,,,,,,0.986,1.02,0.481,0.0713,0.0502,0.655,0.547,0.237,0.0721,0.124
A-427,0.811,0.8,0.758,,0.539,0.878,0.73,0.636,0.176,0.162,0.972,1.08,0.594,0.655,0.168,0.749,0.683,0.674,0.164,0.116
NCI-H1792,0.738,0.893,0.825,0.95,0.613,0.496,0.564,0.221,0.292,0.135,,,,,,0.298,0.225,0.622,0.203,0.204
LCLC-97TM1,0.755,0.873,0.791,,0.701,0.186,0.178,0.141,0.214,0.113,0.929,0.824,0.673,0.34,0.164,,0.145,0.142,0.128,0.103
NCI-H1703,,,,,,,,,,,0.407,0.347,0.368,0.299,0.16,0.273,0.241,0.235,0.157,0.123
LCLC-103H,0.527,0.583,0.384,0.609,0.53,0.703,0.703,0.521,0.602,0.315,0.745,0.865,0.45,0.335,0.216,0.676,0.655,0.521,0.544,0.345
PC-3 [JPC-3],0.967,1.09,1.01,1.04,0.972,0.825,0.676,0.65,0.399,0.267,1.07,1,0.61,0.376,0.272,0.779,0.701,0.588,0.376,0.229
BEN,0.322,0.271,0.313,0.377,0.279,1.07,0.853,0.814,0.472,0.401,0.739,0.731,0.448,0.193,0.196,0.639,0.57,0.369,0.294,0.211
Calu-6,,,,,,,,,,,0.941,0.829,0.579,0.172,0.101,0.988,0.87,0.379,0.121,0.0686
NCI-H2342,0.311,0.317,0.308,0.335,0.285,0.763,0.743,0.731,0.77,0.565,1.08,0.98,0.794,0.735,0.453,,,,,
EBC-1,,,,,,,,,,,0.0859,0.103,0.104,0.105,0.0891,0.421,0.327,0.29,0.153,0.157
NCI-H1299,,,,,,,,,,,1.03,1.06,0.787,0.267,0.179,0.753,0.717,0.369,0.0957,0.0657
NCI-H522,0.886,1.04,0.916,,0.742,0.749,0.778,0.732,0.6,0.454,,,,,,,,,,
IA-LM,,,,,,,,,,,1.17,1.17,0.384,0.42,0.0844,,0.377,0.216,0.0793,0.112
